# Results reported in publication PMC7731220, “Pharmacophore Modeling and 3D-QSAR Study of Indole and Isatin Derivatives as Antiamyloidogenic Agents Targeting Alzheimer’s Disease” (Molecules, 2020).
# Read-outs that look alike come from different tables or passages of the source.
# Legend:
# [1] = target: T1, Aβ40 (Homo sapiens, UniProt P05067); experiment: Inhibition of Aβ40 self-aggregation (thioflavin T fluorescence, 2% HFIP); conditions: for inhibition at 100 µM: read-out: Aβ40 Aggregation Inhibition % at 100 μM
# T1 sequence (P05067 672-711 limits assumed): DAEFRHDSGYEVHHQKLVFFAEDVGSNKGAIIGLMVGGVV
# Procedure: All the newly prepared compounds were tested in a routine in vitro assay of inhibition of Aβ40 self-aggregation [25].
# All assays were performed in 96-well plates (Greiner Bio-One, Kremsmünster, Austria) using an Infinite M1000 Pro plate reader (Tecan, Cernusco s.N., Italy). Inhibition data were obtained as mean ± SD (for single concentration points) or mean ± SEM from three independent experiments (for IC50s), using Prism (GraphPad Prism version 5.00 for Windows, GraphPad Software, San Diego, CA, USA).
# Assay of aggregation of Aβ40 (EzBiolab, Carmel, IN, USA) was performed as described [25], using 2% of 1,1,1,3,3,3-hexafluoro-2-propanol as aggregation enhancer and spectrofluorimetric detection of thioflavin T fluorescence as the probe of amyloid aggregation.
# [2] = target: T1, Aβ40; conditions: supplement, cited from earlier work; for % inhib. @ 100 µM / IC50: training set
structure (smiles),measurement,setting,value
N/N=C1\C(=O)Nc2ccccc21 [Compound 2],inhibition at 100 µM,[1],17 ± 2%
COc1ccc2c(c1)C(=O)C(=O)N2Cc1ccccc1 [Compound 10],inhibition at 100 µM,[1],52 ± 1%
COc1ccc2c(c1)C(=O)C(=O)N2CCCc1ccccc1 [Compound 12],IC50,[1],19 ± 4 µM
COc1ccc2c(c1)C(=O)C(=O)N2C1CC1 [Compound 14],inhibition at 100 µM,[1],38 ± 5%
"CC(C)c1ccc(NN=C2C(=O)N(C3CC3)c3ccc(O)cc32)cc1 [Compound 20, 1-Cyclopropyl-5-hydroxy-3-(2-(4-isopropylphenyl)hydrazono)indolin-2-one]",inhibition at 100 µM,[1],26 ± 3%
"O=C1Nc2ccccc2C1=NNc1ccc2ccccc2c1 [Compound 24, 3-(2-(Naphthalen-2-yl)hydrazono)indolin-2-one]",IC50,[1],10 ± 2 µM
"O=C1Nc2ccccc2C1=NNc1cccc2cccnc12 [Compound 25, 3-(2-(Quinolin-8-yl)hydrazineylidene)indolin-2-one]",inhibition at 100 µM,[1],63 ± 5%
"CC(C)c1ccc(NN=Cc2c[nH]c3ccccc23)cc1 [Compound 28, 3-((2-(4-Isopropylphenyl)hydrazono)methyl)-1H-indole]",IC50,[1],18 ± 2 µM
"COc1ccc2[nH]cc(C=NNc3ccc(C#N)cc3)c2c1 [Compound 29, 4-(2-((5-Methoxy-1H-indol-3-yl)methylene)hydrazineyl)benzonitrile]",inhibition at 100 µM,[1],56 ± 1%
Clc1cccc(N/N=C/c2c[nH]c3ccccc23)c1 [Compound 30],IC50,[1],13 ± 2 µM
"COc1ccc2[nH]cc(C=NNc3cccc(Cl)c3)c2c1 [Compound 31, 3-((2-(3-Chlorophenyl)hydrazineylidene)methyl)-5-methoxy-1H-indole]",IC50,[1],9.2 ± 0.7 µM
COc1ccc2[nH]cc(/C=N/Nc3ccc(Cl)cc3)c2c1 [Compound 33],IC50,[1],22 ± 2 µM
"COc1ccc2[nH]cc(C=NNc3ccccn3)c2c1 [Compound 34, 5-Methoxy-3-((2-(pyridin-2-yl)hydrazineylidene)methyl)-1H-indole]",inhibition at 100 µM,[1],20 ± 2%
"COc1ccc2[nH]cc(C=NNc3ccnc4cc(Cl)ccc34)c2c1 [Compound 36, 7-Chloro-4-(2-((5-methoxy-1H-indol-3-yl)methylene)hydrazineyl)quinoline]",IC50,[1],13 ± 1 µM
"Clc1c(C=NNc2ccccc2)[nH]c2ccc(Br)cc12 [Compound 40, 5-Bromo-3-chloro-2-((2-phenylhydrazineylidene)methyl)-1H-indole]",IC50,[1],25 ± 3 µM
"CC(C)c1ccc(NN=Cc2[nH]c3ccc(Br)cc3c2Cl)cc1 [Compound 41, 5-Bromo-3-chloro-2-((2-(4-isopropylphenyl)hydrazineylidene)methyl)-1H-indole]",inhibition at 100 µM,[1],63 ± 6%
CC1(C)OC(=O)C(C=C2Nc3ccccc3C2=O)C(=O)O1 [Compound 44],inhibition at 100 µM,[1],44 ± 1%
O=C1C(=CNNc2ccccc2)C(=O)c2ccccc21 [Compound S1],% inhib. @ 100 µM,[2]; 100 µM,49±2.0%
Cc1ccc(NNC=C2C(=O)c3ccccc3C2=O)cc1 [Compound S2],% inhib. @ 100 µM,[2]; 100 µM,44±4.0%
CC(C)c1ccc(NNC=C2C(=O)c3ccccc3C2=O)cc1 [Compound S3],IC50,[2],18 µM
O=C1C(=CNNc2ccccc2Cl)C(=O)c2ccccc21 [Compound S4],IC50,[2],32 µM
O=C1C(=CNNc2cccc(Cl)c2)C(=O)c2ccccc21 [Compound S5],IC50,[2],18 µM
O=C1C(=CNNc2ccc(Cl)cc2)C(=O)c2ccccc21 [Compound S6],IC50,[2],23 µM
O=c1c(=NNc2ccc(Cl)cc2)c(=O)c2ccccc12 [Compound S7],% inhib. @ 100 µM,[2]; 100 µM,38±5.3%
Cc1ccc(N/N=C/C2=Nc3ccccc3C2=O)cc1 [Compound S9],IC50,[2],3.6 µM
CC(C)c1ccc(N/N=C/C2=Nc3ccccc3C2=O)cc1 [Compound S10],IC50,[2],1.4 µM
O=C1C(/C=N/Nc2ccccc2Cl)=Nc2ccccc21 [Compound S11],IC50,[2],13 µM
O=C1C(/C=N/Nc2cccc(Cl)c2)=Nc2ccccc21 [Compound S12],IC50,[2],2.5 µM
O=C1C(/C=N/Nc2ccc(Cl)cc2)=Nc2ccccc21 [Compound S13],% inhib. @ 100 µM,[2]; 100 µM,33±1.0%
O=C1C(/C=N/Nc2ccccc2)=Nc2ccc(Br)cc21 [Compound S14],IC50,[2],35 µM
Cc1ccc(N/N=C/C2=Nc3ccc(Br)cc3C2=O)cc1 [Compound S15],IC50,[2],51 µM
CC(C)c1ccc(N/N=C/C2=Nc3ccc(Br)cc3C2=O)cc1 [Compound S16],IC50,[2],23 µM
O=C1C(/C=N/Nc2ccccc2Cl)=Nc2ccc(Br)cc21 [Compound S17],IC50,[2],7.8 µM
O=C1C(/C=N/Nc2cccc(Cl)c2)=Nc2ccc(Br)cc21 [Compound S18],IC50,[2],4.4 µM
O=C1C(/C=N/Nc2ccc(Cl)cc2)=Nc2ccc(Br)cc21 [Compound S19],% inhib. @ 100 µM,[2]; 100 µM,46±7.0%
O=C1C(/C=N/Nc2ccc(Cl)c(Cl)c2)=Nc2ccc(Br)cc21 [Compound S20],% inhib. @ 100 µM,[2]; 100 µM,23±2.3%
COc1ccc(N/N=C2\C(=O)Nc3ccccc32)cc1 [Compound S21],IC50,[2],13 µM
COc1cc2c(cc1OC)/C(=N/Nc1ccccc1)C(=O)N2 [Compound S25],IC50,[2],63 µM
COc1ccc2c(c1)/C(=N/Nc1cccc(Cl)c1)C(=O)N2 [Compound S26],% inhib. @ 100 µM,[2]; 100 µM,72±1%
COc1ccc2c(c1)/C(=N/Nc1ccc(Cl)cc1)C(=O)N2 [Compound S27],% inhib. @ 100 µM,[2]; 100 µM,43±2%
COc1ccc2c(c1)/C(=N/Nc1ccc(C)cc1)C(=O)N2 [Compound S28],% inhib. @ 100 µM,[2]; 100 µM,29±4%
COc1ccc2c(c1)/C(=N/Nc1ccc(C(C)(C)C)cc1)C(=O)N2 [Compound S30],% inhib. @ 100 µM,[2]; 100 µM,66±4%
same,IC50,[2],15 µM
O=C1Nc2ccccc2/C1=N/Nc1ccccc1 [Compound S31],% inhib. @ 100 µM (II),"[2]; 100 µM, value marked (II)",61±0.7%
COc1ccc2c(c1)/C(=N/Nc1cccc(C(C)(C)C)c1)C(=O)N2 [Compound S32],% inhib. @ 100 µM,[2]; 100 µM,56±2%
COc1ccc(N/N=C2\C(=O)Nc3ccc(OC)cc32)cc1 [Compound S33],IC50,[2],3.7 µM
COc1ccc2c(c1)NC(=O)/C2=N\Nc1ccc(C(C)C)cc1 [Compound S36],IC50,[2],7.1 µM
COc1cc2c(cc1OC)/C(=N/Nc1ccccc1Cl)C(=O)N2 [Compound S37],% inhib. @ 100 µM,[2]; 100 µM,70±3%
COc1cc2c(cc1OC)/C(=N/Nc1cccc(Cl)c1)C(=O)N2 [Compound S38],IC50,[2],17 µM
COc1cc2c(cc1OC)/C(=N/Nc1ccc(Cl)cc1)C(=O)N2 [Compound S39],IC50,[2],33 µM
COc1cc2c(cc1OC)/C(=N/Nc1ccc(C(C)C)cc1)C(=O)N2 [Compound S40],IC50,[2],4.4 µM
COc1ccc(N/N=C2\C(=O)Nc3cc(OC)c(OC)cc32)cc1 [Compound S41],IC50,[2],22 µM
O=C1Nc2ccccc2/C1=N/Nc1cccc(F)c1 [Compound S42],% inhib. @ 100 µM,[2]; 100 µM,52±0.9%
O=C1Nc2cc(Cl)c(F)cc2/C1=N/Nc1ccc(Cl)cc1 [Compound S43],% inhib. @ 100 µM,[2]; 100 µM,28±3.7%
O=C1Nc2ccc(Br)cc2/C1=N/Nc1ccc(Cl)cc1 [Compound S44],% inhib. @ 100 µM,[2]; 100 µM,63±4%
O=C1Nc2ccc([N+](=O)[O-])cc2/C1=N/Nc1ccc(Cl)cc1 [Compound S45],% inhib. @ 100 µM,[2]; 100 µM,12±2%
O=C1Nc2ccccc2/C1=N/Nc1ccc(O)cc1 [Compound S46],IC50,[2],9.3 µM
O=C1Nc2ccc(O)cc2/C1=N/Nc1ccccc1 [Compound S47],% inhib. @ 100 µM,[2]; 100 µM,62±3%
O=C1Nc2ccc(O)cc2/C1=N/Nc1cccc(Cl)c1 [Compound S48],IC50,[2],18 µM
CC(C)c1ccc(N/N=C2\C(=O)Nc3ccc(O)cc32)cc1 [Compound S49],IC50,[2],21 µM
O=C1Nc2ccc(O)cc2/C1=N/Nc1ccc(O)cc1 [Compound S50],% inhib. @ 100 µM,[2]; 100 µM,61±2%
O=C1Nc2cc(O)ccc2/C1=N/Nc1ccccc1 [Compound S51],IC50,[2],22 µM
CC(C)c1ccc(N/N=C2\C(=O)Nc3cc(O)ccc32)cc1 [Compound S52],IC50,[2],6 µM
O=C1Nc2ccccc2/C1=N/Nc1ccccc1Cl [Compound S53],% inhib. @ 100 µM,[2]; 100 µM,44±5%
O=C1Nc2cc(O)c(O)cc2/C1=N/Nc1ccccc1 [Compound S54],IC50,[2],4.3 µM
O=C1Nc2cc(O)c(O)cc2/C1=N/Nc1ccccc1Cl [Compound S55],IC50,[2],11 µM
O=C1Nc2cc(O)c(O)cc2/C1=N/Nc1ccc(Cl)cc1 [Compound S57],IC50,[2],17 µM
CC(C)c1ccc(N/N=C2\C(=O)Nc3cc(O)c(O)cc32)cc1 [Compound S58],IC50,[2],1.6 µM
O=C1Nc2cc(O)c(O)cc2/C1=N/Nc1ccc(O)cc1 [Compound S59],IC50,[2],24 µM
O=C1Nc2ccccc2/C1=N/Nc1cccc(Cl)c1 [Compound S60],% inhib. @ 100 µM,[2]; 100 µM,39±5%
O=C1Nc2ccccc2/C1=N/Nc1ccc(Cl)cc1 [Compound S61],% inhib. @ 100 µM,[2]; 100 µM,24±4.9%
O=C1Nc2ccccc2/C1=N/Nc1ccc(OC(F)(F)F)cc1 [Compound S62],% inhib. @ 100 µM,[2]; 100 µM,57±3%
O=C1Nc2ccccc2/C1=N/Nc1cccc([N+](=O)[O-])c1 [Compound S63],% inhib. @ 100 µM,[2]; 100 µM,29±1.2%
CC(C)c1ccc(N/N=C2\C(=O)Nc3ccccc32)cc1 [Compound S64],% inhib. @ 100 µM,[2]; 100 µM,64±4%
COc1ccc2c(c1)/C(=N/Nc1nc(CCl)cs1)C(=O)N2 [Compound S67],IC50,[2],13 µM
COc1ccc2c(c1)/C(=N/Nc1nc(-c3cccc(O)c3)cs1)C(=O)N2 [Compound S70],IC50,[2],16 µM
COc1cccc(-c2csc(N/N=C3\C(=O)Nc4ccc(OC)cc43)n2)c1 [Compound S71],IC50,[2],34 µM
COc1ccc2c(c1)/C(=N/Nc1nc(-c3cccc(Br)c3)cs1)C(=O)N2 [Compound S72],IC50,[2],40 µM
COc1ccc2c(c1)/C(=N/N(C)c1ccc(C(C)C)cc1)C(=O)N2C [Compound S73],IC50,[2],11 µM
CC(C)c1ccc(N/N=C2\C(=O)Nc3c(Br)cccc32)cc1 [Compound S80],% inhib. @ 100 µM,"[2]; 100 µM, ± SD",1±9.3%
COc1ccc2c(c1)/C(=N/Nc1cccc3ccccc13)C(=O)N2 [Compound S87],IC50,[2],28 µM
COc1ccc2c(c1)/C(=N/N=C/c1ccc(C(C)C)cc1)C(=O)N2 [Compound S89],IC50,[2],6.7 µM
COc1ccc2c(c1)/C(=N/N=C/c1cccc(Cl)c1)C(=O)N2 [Compound S90],IC50,[2],11 µM
Oc1ccc2[nH]cc(/C=N/Nc3ccc(Cl)cc3)c2c1 [Compound S92],IC50,[2],21 µM
